Consider 1 molecule from patent EP2727916A1, “Neuroprotective multi-target directed drugs” (Universitat Autònoma de Barcelona, priority 2012, dated 2014).

One assay has as its target T1, bovine lung SSAO (Bos taurus, UniProt Q9TTK6).
T1 construct: and bovine lung SSAO by compounds of the invention; from tissue; host or cells: bovine lung
T1 sequence (Q9TTK6 1-763): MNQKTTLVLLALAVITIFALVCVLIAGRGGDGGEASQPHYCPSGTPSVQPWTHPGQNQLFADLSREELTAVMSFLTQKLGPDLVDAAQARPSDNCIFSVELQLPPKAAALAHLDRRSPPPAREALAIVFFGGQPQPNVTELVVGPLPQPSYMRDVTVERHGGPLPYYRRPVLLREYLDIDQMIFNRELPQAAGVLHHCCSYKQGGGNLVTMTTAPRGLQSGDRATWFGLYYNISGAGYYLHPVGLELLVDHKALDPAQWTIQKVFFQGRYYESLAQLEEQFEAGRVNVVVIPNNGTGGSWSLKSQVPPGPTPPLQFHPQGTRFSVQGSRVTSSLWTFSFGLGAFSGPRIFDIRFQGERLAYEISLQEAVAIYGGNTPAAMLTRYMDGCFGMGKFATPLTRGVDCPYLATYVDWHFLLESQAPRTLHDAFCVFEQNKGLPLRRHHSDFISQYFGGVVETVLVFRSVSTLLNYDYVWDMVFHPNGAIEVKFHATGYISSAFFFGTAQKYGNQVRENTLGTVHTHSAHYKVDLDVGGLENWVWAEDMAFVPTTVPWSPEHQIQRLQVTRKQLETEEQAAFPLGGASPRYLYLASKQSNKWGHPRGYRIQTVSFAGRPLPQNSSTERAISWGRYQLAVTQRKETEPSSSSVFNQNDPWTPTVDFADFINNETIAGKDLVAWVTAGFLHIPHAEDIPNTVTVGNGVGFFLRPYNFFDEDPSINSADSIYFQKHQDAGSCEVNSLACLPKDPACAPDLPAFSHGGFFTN
Description: Inhibition of semicarbazide sensitive amine oxidase (SSAO), radiochemical. Format: biochemical.

The target of another assay is EeAChE (Electrophorus electricus, UniProt O42275). The assay can be described thus: Kinetic study of EeAChE inhibition (Lineweaver-Burk plots). It counts as biochemical. As to the method:
(§1) Lineweaver-Burk reciprocal plots of initial velocity and substrate concentrations (0.1-1 mM) are presented. […] Lineweaver-Burk reciprocal plots of initial velocity and substrate concentrations (0.1-1 mM) are presented. […] Lineweaver-Burk reciprocal plots of initial velocity and substrate concentrations (0.1-1 mM) are presented. […] Three consecutive centrifuges were performed with buffer. […] 5 µM). All solution were made using Tris buffer pH7.4. […] 5 µM). All solution were made using Tris buffer pH7.4. […] 5 µM). All solution were made using Tris buffer pH7.4. Spectra were obtained after a Short-time incubation
To determine the type of the EeAChE inhibition mechanism of these compounds, a kinetic study was carried out on inhibitor 6.

In another assay the target is T2, MAO-A (Rattus norvegicus, UniProt P21396).
T2 construct: from tissue; host or cells: rat brain homogenate per the methods
T2 sequence (P21396 1-526): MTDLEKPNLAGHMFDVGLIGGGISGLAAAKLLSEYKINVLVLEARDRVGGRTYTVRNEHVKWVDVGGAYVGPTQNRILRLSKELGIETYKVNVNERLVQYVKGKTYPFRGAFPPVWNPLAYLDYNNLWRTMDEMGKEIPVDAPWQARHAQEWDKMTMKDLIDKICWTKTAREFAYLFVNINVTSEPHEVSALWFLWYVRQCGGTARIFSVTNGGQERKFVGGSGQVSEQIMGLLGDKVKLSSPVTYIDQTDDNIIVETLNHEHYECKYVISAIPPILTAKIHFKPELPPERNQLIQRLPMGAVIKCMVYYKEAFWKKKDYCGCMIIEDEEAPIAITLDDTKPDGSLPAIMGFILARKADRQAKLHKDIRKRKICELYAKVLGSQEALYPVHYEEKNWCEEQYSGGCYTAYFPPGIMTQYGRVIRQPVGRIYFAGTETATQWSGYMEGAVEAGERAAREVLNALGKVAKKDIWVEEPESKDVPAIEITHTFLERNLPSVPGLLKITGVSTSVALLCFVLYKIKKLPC
The assay can be described thus: Time-dependence of MAO-A inhibition (pre-incubation times). It counts as biochemical. On the procedure: as §1
(§2) Independent inhibition assays were also performed at different pre-incubation periods for both two MAO isoforms (Figure 6). […]

For the next assay, the target named is T3, MAO-B (Rattus norvegicus, UniProt P19643).
T3 construct: from tissue; host or cells: rat brain homogenate per the methods
T3 sequence (P19643 1-520): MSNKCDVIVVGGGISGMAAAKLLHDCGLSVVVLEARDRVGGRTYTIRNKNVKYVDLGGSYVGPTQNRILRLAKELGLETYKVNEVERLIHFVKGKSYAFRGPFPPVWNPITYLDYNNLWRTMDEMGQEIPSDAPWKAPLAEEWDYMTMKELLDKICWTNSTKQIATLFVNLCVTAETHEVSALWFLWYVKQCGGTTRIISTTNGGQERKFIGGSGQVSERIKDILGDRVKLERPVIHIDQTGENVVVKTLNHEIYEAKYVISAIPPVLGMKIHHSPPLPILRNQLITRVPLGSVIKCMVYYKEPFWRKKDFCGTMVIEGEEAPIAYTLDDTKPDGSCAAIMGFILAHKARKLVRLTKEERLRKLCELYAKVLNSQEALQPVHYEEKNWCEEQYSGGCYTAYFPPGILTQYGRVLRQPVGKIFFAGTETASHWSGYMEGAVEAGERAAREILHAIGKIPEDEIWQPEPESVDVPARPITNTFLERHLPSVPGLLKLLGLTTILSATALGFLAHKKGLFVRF
The assay can be described thus: Time-dependence of MAO-B inhibition (pre-incubation times). It counts as biochemical. As to the method:
as §1, §2

The nature of assay [1]: Metal binding assay, spectrophotometric detection of Cu(II) complex. It counts as physicochemical. The conditions noted are these: 10 µM, Tris buffer pH7.4, Cu(SO4) 6.25 and 12.5 µM, few minutes after addition. On the procedure: as §1
It is known that 8-quinolinol is a strong chelator for biometals such iron and copper. This is an important precondition for the antioxidative-type drugs because it is the excessive iron stores and iron-mediated generation of free radicals in the brain that are thought to be associated with neurodegenerative diseases. Therefore, only chelators with a higher selectivity for iron over copper are expected to chelate iron instead of copper and have potential neuroprotective effects. […] A spectrophotometric method is used for measurement of the copper/iron-complexes stability constants of the compounds.
The metal binding assay was performed by the spectrophotometric detection of the formation of Fe(III)- and Cu(II)-6 complex.

In a further assay the target is T4, ratMAO-A (Rattus norvegicus, UniProt P21396).
T4 sequence (P21396 1-526): T2 sequence (P21396 1-526)
The assay can be described thus: MAO-A inhibition, radiometric method of Fowler and Tipton (14C 5-HT). Format: biochemical. The arrangement: MAO-A and MAO-B activities were determined in rat brain homogenate; from tissue; host or cells: rat brain homogenate per the methods.

Setting [2] is: 20 µM, pre-incubation times 0-360 min.

Entries after “also recorded” stand apart in the source; their conditions may differ. Bounds are passed on as bounds.

In general, IC50 refers to the point on the concentration scale where inhibition reaches its midpoint. Read a low IC50 as higher potency. Broadly, the Ki is a dissociation constant, usually derived from enzyme kinetics or from competition with a known ligand.

EeAChE, sequence (O42275 24-633): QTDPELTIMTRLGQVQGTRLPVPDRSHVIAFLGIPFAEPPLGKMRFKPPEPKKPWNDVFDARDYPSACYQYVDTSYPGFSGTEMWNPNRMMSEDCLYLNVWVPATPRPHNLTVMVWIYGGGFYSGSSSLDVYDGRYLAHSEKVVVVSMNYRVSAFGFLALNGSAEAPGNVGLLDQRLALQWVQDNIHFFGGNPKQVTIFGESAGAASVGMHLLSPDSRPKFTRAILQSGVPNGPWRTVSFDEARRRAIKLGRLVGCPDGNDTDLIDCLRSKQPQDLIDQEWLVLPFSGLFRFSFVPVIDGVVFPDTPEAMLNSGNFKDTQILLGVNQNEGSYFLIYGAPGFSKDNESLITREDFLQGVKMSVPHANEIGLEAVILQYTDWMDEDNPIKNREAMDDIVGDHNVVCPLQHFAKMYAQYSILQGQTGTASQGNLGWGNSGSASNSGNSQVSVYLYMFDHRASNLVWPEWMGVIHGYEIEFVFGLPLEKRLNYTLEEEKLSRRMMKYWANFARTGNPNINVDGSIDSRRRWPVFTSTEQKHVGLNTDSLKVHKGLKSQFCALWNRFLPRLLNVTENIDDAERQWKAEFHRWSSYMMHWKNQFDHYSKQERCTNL

For the molecule `C#CCN(Cc1ccc(O)c2ncccc12)C(C#N)CCC1CCN(Cc2ccccc2)CC1` (stereo not shown) [Compound 6, 4-(1-benzylpiperidin-4-yl)-2-(((8-hydroxyquinolin-5-yl)methyl)(prop-2-yny)amino)butanenitrile], the IC50 at bovine lung SSAO worked out at 2.01 ± 0.5 µM; against MAO-A (pre-incubation time 0 min) it was 29.1 µM; against MAO-A (pre-incubation time 30 min), 5.8 µM; on MAO-A (pre-incubation time 60 min) it was 2.3 µM; against MAO-A (pre-incubation time 240 min), 0.7 µM; against MAO-B (pre-incubation time 0 min), 61.7 µM. In addition, the IC50 is 9.3 µM against MAO-B (pre-incubation time 30 min), 3.3 µM against MAO-B (pre-incubation time 60 min), 1.2 µM against MAO-B (pre-incubation time 240 min) and 6.16 ± 0.7 µM at ratMAO-A. The “type of EeAChE inhibition mechanism” value on EeAChE (Lineweaver-Burk reciprocal plots) is on record as “mixed-type inhibition”. For the same molecule, the Ki at EeAChE (estimated from the slopes of double reciprocal plots) was 1.21 ± 0.25 µM. In addition, at MAO-A (setting [2]), the “pre-incubation period to complete MAO-A activity inhibition” value was at least 180 min. Further, the “time-dependence of MAO-A inhibition” value on MAO-A (setting [2]) is recorded as “irreversible behaviour; also recorded: time-dependent”. Besides, on MAO-B (setting [2]), the “pre-incubation period to complete MAO-B activity inhibition” value was at least 180 min. Besides, the “time-dependence of MAO-B inhibition” value on MAO-B (setting [2]) was “irreversible behaviour; also recorded: time-dependent”. The “formation of Cu(II)-6 complex, UV-vis spectrum change” value in assay [1] was “The 240 nm-band completely dissapeared while a new one appeared at 275 nm”. For the same molecule, at ratMAO-A, the “fold less active than M-30 for the inhibition of MAO-A” value is given as 166 fold. The “fold more active than donepezil 1 for MAO-A” value at ratMAO-A came out at 138 fold.
